In patent US12156879B2, “Combining BACE1 inhibitors with mGluR agonists for Alzheimer's disease therapy” (University of Connecticut, priority 2019, dated 2024):

Columns and labels:
[1] = system: Schaffer collateral (SC)-CA1 synapses; test: LTP recordings on horizontal hippocampal slices (fEPSP amplitude after high-frequency stimulation); format: in vivo, mice; conditions: for LTP at SC-CA1 synapses: daily oral Verubecestat 3 mg/kg or Lanabecestat 0.5 mg/kg for 2-4 months; for potentiation at 30 minutes post-stimulation: slices from 4-6-month-old WT mice, Lanabecestat 0.5 mg/kg or Verubecestat 3 mg/kg, control slices 245.9±0.9864%
Description: (§1) C57BL/6 mice of either sex (4-6 months of age; n=6 per group) received vehicle or BACE1 inhibitors, Lanabecestat (AZD3293) solution at 0.25 mg/kg or 0.5 mg/kg) via oral gavage (Eketjall et al., 2016b). For Verubescstat, 3mg/kg dose was used and delivered orally via gavage (Kennedy et al., 2016). Treatment usually last 2-4 months. The mGluR1 positive allosteric modulator Ro0711401 at 10 mg/kg was given as intraperitoneal injections (IP) 1 hour before decapitation for LTP experiments (Notartomaso et al., 2013). For behavioral assays, Ro0711401 was deliver via IP injection at 12-hour intervals for 6-8 weeks. The mGluR1/5 positive allosteric modulator CHPG was mixed in aCSF and used during recording LTP. The drug was applied in a bath during baseline recording for at least for 30 minutes before HFS stimulation was applied and LTP was recorded (Le Duigou and Kullmann, 2011).
Acute brain slices were prepared as previously described (Hu et al., 2018). Briefly, the mice were decapitated and the brains were immersed in low-calcium artificial cerebrospinal fluid (aCSF) containing (in mM): 125 NaCl, 2.5 KCl, 10 glucose, 25 NaHCO3, 1.25 NaH2PO4, 0.4 L-ascorbic acid, 3 myo-inositol, 2 Na-pyruvate, 3 MgCl2 and 0.1 CaCl2 continuously bubbled with 95% O2 and 5% CO2 (pH≈7.3). Animals were decapitated with a guillotine and the brain was quickly removed to an ice-cold aCSF chamber with constant bubbling of 95% O2 and 5% CO2. Acute horizontal brain slices containing the hippocampus were obtained using a Campden 7000 smz-2 vibratome from 4-7-month-old mice at 350 μm thick. Slices were immediately transferred to an incubation beaker containing normal aCSF (same as the low-calcium aCSF except that 1 mM MgCl2 and 1, 1.2, or 2 mM CaCl2 were used) at 30° C., continuously bubbled with 95% O2 and 5% CO2. Slices were allowed to recover for 1 hour and then were transferred to an MED-64 recording chamber with the same aCSF solution at ≈30° C., maintained by MED ThermoConnector (Automate Scientific) with continuous aCSF perfusion at 2 ml/min.
LTP recordings on hippocampal slices were performed according to previously-described procedures (Shimono et al., 2002; Baba et al., 2003; Itoh et al., 2005). Upon obtaining horizontal hippocampal slices from the brains of mice, the prepared slices were then placed onto the center of an MED probe (MED-P515A; AutoMate™ Scientific) with continuous perfusion of aCSF and bubbling of 95% O2 and 5% CO2. The device has an array arranged in an 8×8 pattern of 64 planar microelectrodes across a hippocampal slice. Each electrode is 20×20 μm with an interelectrode distance of 150 μm. A MED-A64HE1S head amplifier and a MED-A64MD1 main amplifier, run by Mobius software, were used for data acquisition and analysis. SCs to CA1 synapses were typically analyzed for LTP assays. fEPSPs caused by stimulation were recorded at a 20-kHz sampling rate within the CA1 subregion of the hippocampus. Control fEPSPs were recorded for at least 10 min before the conditioning stimulation, using a response ˜50% of the maximum. After a stable baseline was established, LTP was induced with three trains of 100 Hz for 1 s with an intertrain interval F of 20 s. Field potential amplitudes were then measured. Data are expressed as mean±SEM. Synaptic strength was evaluated by measuring changes in the fEPSP amplitude relative to baseline. Statistics were calculated by Student's t tests.

[2] = system: synaptic proteins PSD95, mGluR2, Synaptophysin in synaptosome fraction; test: Western analysis of synaptic proteins in synaptosomes from treated animals; format: in vivo, mice; conditions: chronic treatment, Lanabecestat 0.5 mg/kg or Verubecestat 3 mg/kg
Description: as §1
Synaptosome isolation was performed using Thermo Scientific Syn-PER Synaptic Protein Extraction Reagent (cat #87793) from whole brain samples. Briefly, mice were sacrificed by live decapitation, and rapidly dissected hippocampi were homogenized in Syn-Per reagent, ˜1 ml/100 mg tissue. Samples were then centrifuged at 1200×g for 10 min. The resulting supernatant was then centrifuged at 15,000×g for 20 min. Pellets (synaptosomes) were resuspended in buffer B ([…] in 6 mm Tris, pH 8.0) with 1% SDS, briefly sonicated, and frozen in −80° C. Total protein extraction was performed according to previously-described procedures (Hu et al., 2007). Brain samples were homogenized in radioimmunoprecipitation assay (RIPA) buffer (50 mM Tris-HCl, pH 7.4, 1% NP-40, 0.25% sodium deoxycholate, 150 mM NaCl, 1 mM EDTA, 1 mM NaF, 1 mM Na3VO4, and a protease inhibitor cocktail [Roche]) and centrifuged at 13,200 rpm for 90 min. Equal amounts of protein were resolved on a NuPAGE Bis-Tris gel (Invitrogen) and transferred onto nitrocellulose membranes (Invitrogen). Subsequently, blots were incubated with primary antibodies 1:1,000 mGluR1 [AB_12551; Cell Signaling]; 1:1,000 PSD-95 [AB_36233; Cell Signaling]; 1:5,000 GluR1 [AB_05-855; Upstate]; 1:1,000 GluR2/3 [AB_07-598; Upstate]; 1:1,000 GluR4 [AB_06-308; Upstate]; 1:1,000 Homer [AB_8231; Cell Signaling]; 1:500 TMEM25 [AB_24361-1-AP; ProteinTech Group]; 1:1,000 Bassoon [AB_141021; Synaptic Systems]; 1:10,000 Actin [AB_A5441; Sigma], overnight at 4° C. After extensive washing, blots were reacted with HRP-conjugated secondary antibodies and visualized using enhanced chemiluminescence (Thermo Scientific).

[3] = system: WT (BACE1+/+) mice; test: Fear conditioning studies; format: in vivo; conditions: Lanabecestat 0.5 mg/kg or Verubecestat 3 mg/kg, N=10
[4] = system: mice (WT BACE1+/+ or BACE1-null); test: Open field test; format: in vivo
Description: (§2) Treatment usually last 2-4 months. […] For behavioral assays, Ro0711401 was deliver via IP injection at 12-hour intervals for 6-8 weeks. The mGluR1/5 positive allosteric modulator CHPG was mixed in aCSF and used during recording LTP.
Each subject was released in the middle of the arena and observed for 10 minutes. Performance in the open field was recorded by a computer-based video tracking system (Any maze™ software, San Diego instruments, USA). Activity measures included distance traveled, percentage of time spent in corners vs. the center of the arena, and speed of movement during active exploration. The number of entries to the central zone of the open field was also recorded. Statistics were calculated by Student's t tests.

[5] = cited from earlier work
[6] = system: mice (WT BACE1+/+ or BACE1-null); test: Y maze spontaneous alternation task; format: in vivo
Text: as §2
The symmetrical Y maze made of acrylic consists of three arms separated by 120 degrees. Each arm is 40 cm long, 17 cm high, 4 cm wide at the bottom and 13 cm wide at the top. Each mouse was placed in the center of the Y maze and was allowed to explore freely through the maze during a 5 min session. The sequence and total number of arms entered was recorded. Arm entry was considered to be completed when the hind paws of the mouse had been completely placed in the arm. Percentage of alternations is the number of triads containing entries into all three arms divided by the maximum possible alternations (the total number of arms entered minus 2)×100. Statistics were calculated by Student's t tests.

[7] = system: mice (WT BACE1+/+ or BACE1-null); test: Morris water maze; format: in vivo
Description: as §2
The Morris water maze test was used to assess cognitive impairment. The apparatus consisted of a white circular tank (120 cm in diameter and 40 cm deep) filled with warm water (22° C.). The water was made to appear opaque using white nontoxic paint. A transparent platform (8 cm in diameter) was located in the middle of the southwest quadrant. Mice were subjected to four consecutive trials each day over a 3-day training period (with a flag attached to the platform) and then again for 5 days (no flag attached to platform) and the platform was submerged 0.5 cm below the water surface. Each mouse was released from four different positions around the perimeter of the tank (north, northwest, east, and southeast). In each trial, every mouse was allowed to swim until it found the platform (for a maximum of 60 s) and was subsequently left on the platform for 20 s between trials. If the platform was not found in 60 s, the mouse was guided to the platform and remained there for 20 s. The escape latency to find the hidden platform was automatically recorded using a video tracking system (Any-maze, San Diego instruments). At the end of the training on the eighth day, a probe test was conducted for […] on the 9th day. The platform was removed; each was released from the northeast quadrant and was allowed to swim for 60 s. Memory retention was measured by quantifying the time spent in the target quadrant, the number of entries made into the southwest quadrant, and the number of crossings over the previous platform location. Statistics were calculated by Student's t tests. Values are expressed as mean±SEM.

[8] = 12 months old BACE1+/+ mice, ~50 days
[9] = WT mice, Lanabecestat 0.5 mg/kg ~2 months (FIG. 6)
[10] = WT mice, Lanabecestat 0.5 mg/kg or Verubecestat 3 mg/kg for ~2 months (FIG. 6)
[11] = BACE1-null mice, 10 mg/kg i.p. every 12 hours, vs mock treatment

SMILES: CC#Cc1cncc(-c2ccc3c(c2)[C@@]2(N=C(C)C(N)=N2)[C@]2(CC[C@@H](OC)CC2)C3)c1 [Lanabecestat]
- LTP reduction at lower dose ([1]; WT mice, Lanabecestat 0.25 mg/kg, compared with 0.5 mg/kg): significantly weaker LTP reduction
- LTP at SC-CA1 synapses ([1]; WT mice): strongly suppressed
- potentiation at 30 minutes post-stimulation [1]: 105.6±0.6137%
- PSD95 level in synaptosome fraction [2]: significant decrease
- Synaptophysin level in synaptosome fraction [2]: significant decrease
- mGluR2 level in synaptosome fraction [2]: significant decrease
- freezing time, contextual phase [3]: significant reduction
- freezing time, cue phase [3]: significant reduction
- distance traveled on the open field, BACE1 inhibitor alone [4, 8]: traveled more distances
- speed on the open field, BACE1 inhibitor alone [4, 8]: faster
- stay in the corner of the open field area vs mock-treated controls ([4]; BACE1 inhibitor alone, ~50 days): stayed more in the corner
- speed [4, 9]: clear increase
- total distance covered [4, 9]: clear increase
- exploratory behaviors, time in corners vs center ([4]; WT mice, ~2 months treatment (FIG. 6)): less exploratory behaviors
- brain penetrability [5]: brain-penetrable
- total entry, BACE1 inhibitor alone [6, 8]: more significant
- % of spontaneous alteration, BACE1 inhibitor alone vs mock treatment ([6]; 12 months old BACE1+/+ mice, ~50 days, Verubecestat 3 mg/kg or Lanabecestat 0.5 mg/kg oral, not statistically significant): reduction
- number of arm entries [6, 10]: clearly reduced
- spontaneous alternations [6, 10]: clearly reduced

SMILES: CN1C(N)=N[C@](C)(c2cc(NC(=O)c3ccc(F)cn3)ccc2F)CS1(=O)=O [Verubecestat]
- LTP at SC-CA1 synapses ([1]; WT mice): significantly reduced
- potentiation at 30 minutes post-stimulation [1]: 113.1±1.353%
- PSD95 level in synaptosome fraction [2]: significant decrease
- Synaptophysin level in synaptosome fraction [2]: significant decrease
- mGluR2 level in synaptosome fraction [2]: significant decrease
- brain penetrability [5]: brain-penetrable

SMILES: O=C(Nc1nc(C(F)(F)F)co1)C1c2ccccc2Oc2ccccc21 [Ro0711401, N-[4-(trifluoromethyl)-1,3-oxazol-2-yl]-9H-xanthene-9-carboxamide]
- LTP from acutely-sectioned brain slices vs vehicle ([1]; 4-6 month old BACE1-null mice, 10 mg/kg i.p. one hour before sacrifice): significantly enhanced
- LTP after chronic treatment ([1]; BACE1-null mice, Ro0711401 10 mg/kg i.p. every 12 hours for about two months, after the behavioral tests): significantly elevated to the level close to that of WT mice
- time spent in the center of the open field ([4]; BACE1-null mice after the treatment): more time spent in the center
- average speed in the open field arena [4, 11]: lowered
- total distance covered in the open field arena [4, 11]: lowered
- brain penetrability [5]: brain-penetrable
- number of entries made to the platform quadrant ([7]; 9th day probe, BACE1-null treated, WT 6.364±0.5094, BACE1-null 3.700±0.5385): 4.900±0.6403
- time to reach the platform, habituation day 3 ([7]; BACE1-null+Ro0711401 mice, BACE1-null 31.56±3.432 s, WT 8.098±1.318 s): 18.20 ± 3.203 s
- time to reach the platform, habituation day 1 ([7]; BACE1-null+Ro0711401 mice, BACE1-null 41.32±3.131 s, WT 21.99±2.986 s): 24.88 ± 2.935 s
- average distance covered to reach the platform over the trials ([7]; habituation and training phases, BACE1-null 3.872±0.7645, WT 1.205±0.2805): 1.909±0.3878 meters
- average duration to reach the platform of untreated BACE1-null mice relative to BACE1-null mice treated with Ro0711401 ([7]; training phase, 5 days, submerged platform, all trial days): significantly higher
- total numbers of arm entries (entrance performance) ([6]; BACE1-null mice, 10 mg/kg i.p. every 12 hours, about 45 days): improved entrance performance
- changes in percentage of spontaneous alternation among groups ([6]; WT, BACE1-null and BACE1-null with Ro0711401): not obvious

SMILES: NC(C(=O)O)c1cc(O)ccc1Cl (racemic) [CHPG, (RS)-2-Chloro-5-hydroxyphenylglycine]
- LTP response vs mock treated slices ([1]; BACE1-null slices pre-treated with 125 nM for 30 min): significantly improved
- LTP response vs mock treatment ([1]; CHPG bath on slices from WT mice treated with Lanabecestat 0.5 mg/kg for 60 days): slightly improved
- LTP response vs mock treatment ([1]; CHPG bath on slices from WT mice treated with Verubecestat 3 mg/kg for 60 days): markedly improved
- brain penetrability [5]: non-brain penetrable
